# US20250064773A1, “TARGETING ERO1 ALPHA WITH AURONE DERIVATIVES” (West Virginia University Board of Governors on behalf of …, priority 2021, published 2025)
# Tests used:
# [1] = test system: normal lung epithelial cell line Beas-2B; test: MTT viability assay, Beas-2B; assay type: cell-based; settings: Homo sapiens, Normal Lung Epithelium
# Text: Cell Lines: PC-9 cell line used was obtained from Sigma Aldrich and grown in RPMI 1640 medium with 10% fetal bovine serum and 1% penicillin/streptomycin. HCC4006, U266, MM1.s, and Beas-2B cell lines were obtained from ATCC and cultured in either RPMI 1640 or DMEM with 10% fetal bovine serum and 1% penicillin/streptomycin. All cell lines were also checked for mycoplasma every six months and subjected to short tandem repeat (STR) analysis for cell line validation. CRISPR Cas9: CRISPR Guide RNA 2 targeting ERO1α and CRISPR Guide RNA 4 were purchased from Genscript in the pLentiCRISPR V2 plasmid containing puromycin/ampicillin selection marker. Lentivirus was made from HEK 293T cells by co-transfection with GuideRNA of interest, pVSVG, and pPAX2 plasmids. […] Plate was then read on the BioTek Cytation 5 at 530/590 nm. […] Plate was then read at 570 nm. Treated wells were all compared to DMSO control wells to calculate percent growth inhibition and the IC50 was calculated using GraphPad (log(inhibitor) vs growth inhibition). […] Images were then quantified using ImageJ. […] Cells were aliquoted at 1 million cells per PCR tube in PBS and heated in Bio-Rad T100 thermal cycler at indicated temperatures (RT, 46° C., 48° C., 50° C., 52° C., 54° C., 56°, 58° C., and 60° C.) for 3 minutes and aggregation temperature was determined by western blot analysis. […]
# [2] = molecular target: LSD-1 (Homo sapiens, UniProt O60341); test: LSD-1 inhibitor screening assay kit (demethylase activity); assay type: biochemical; settings: at concentrations ≤25 μM
# Text: T151742 was used to generate a concentration response. […] Experiments performed in triplicates and shown is the mean and standard deviation of three independent experiments.
compound,measurement,setting,value
CN(C)c1ccc(/C=C2\Oc3cc(O)ccc3C2=O)cc1 [Compound T151742],IC50,[1],> 100 µM
same,inhibition of LSD-1 demethylase activity,[2],did not inhibit
